Results taken from the supplement of paper PMC10307832.

What was measured:
Assay in all cases: relative viability (nuclei count vs DMSO), 5 days (fraction); higher = more cells survive
[1] = compound: CS(=O)(=O)c1ccc(-c2cnc(N)c(C(=O)Nc3ccccc3)n2)cc1 [VE-821] + Nc1ncn([C@H]2C[C@H](O)[C@@H](CO)O2)c(=O)n1 [Decitabine] (partner 2 µM)
In short: (§1)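 The day after seeding in 1536-well plates, lung cancer cell lines were treated by pin tool with a single drug, or with a fixed anchor-drug dose together with five library-drug doses (not always all listed) in √10 steps. After 5 days, a combined fix-and-stain solution (final 0.05% Triton X-100, 1% formaldehyde, 1 ug/ml Hoechst) was added. Nuclei counted on 4× images gave relative viability as treated counts over vehicle counts, reported as the median of duplicate plates.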

[2] = compound: CS(=O)(=O)c1ccc(C(=O)Nc2ccc(Cl)c(-c3ccccn3)c2)c(Cl)c1 [Vismodegib] + Cc1nc(Nc2ncc(C(=O)Nc3c(C)cccc3Cl)s2)cc(N2CCN(CCO)CC2)n1 [Dasatinib] (partner 0.075 µM)
In short: as §1

[3] = compound: N#CC[C@H](C1CCCC1)n1cc(-c2ncnc3[nH]ccc23)cn1 [Ruxolitinib] + CC(=O)Nc1cccc(-n2c(=O)n(C3CC3)c(=O)c3c(Nc4ccc(I)cc4F)n(C)c(=O)c(C)c32)c1 [Trametinib] (partner 0.02 µM)
In short: as §1

[4] = compound: N#CC[C@H](C1CCCC1)n1cc(-c2ncnc3[nH]ccc23)cn1 [Ruxolitinib] + CC(C)C[C@H](NC(=O)[C@H](Cc1ccccc1)NC(=O)c1cnccn1)B(O)O [Bortezomib] (partner 0.002 µM)
In short: as §1

Cell Line | relative viability ([1]; first compound 0.08 µM) | relative viability ([1]; first compound 0.253 µM) | relative viability ([1]; first compound 0.8 µM) | relative viability ([1]; first compound 2.53 µM) | relative viability ([1]; first compound 8 µM) | relative viability ([2]; first compound 0.08 µM) | relative viability ([2]; first compound 0.253 µM) | relative viability ([2]; first compound 0.8 µM) | relative viability ([2]; first compound 2.53 µM) | relative viability ([2]; first compound 8 µM) | relative viability ([3]; first compound 0.08 µM) | relative viability ([3]; first compound 0.253 µM) | relative viability ([3]; first compound 0.8 µM) | relative viability ([3]; first compound 2.53 µM) | relative viability ([3]; first compound 8 µM) | relative viability ([4]; first compound 0.08 µM) | relative viability ([4]; first compound 0.253 µM) | relative viability ([4]; first compound 0.8 µM) | relative viability ([4]; first compound 2.53 µM) | relative viability ([4]; first compound 8 µM)
A-427 | 0.592 | 0.53 | 0.587 | 0.572 | 0.442 | 0.647 | 0.65 | 0.609 | 0.642 | 0.804 | 0.808 | 0.757 | 0.96 | 0.636 | 0.728 | 0.983 | 0.955 | 0.985 | 1.06 | 0.782
NCI-H2347 | 0.624 | 0.595 | 0.678 | 0.693 | 0.723 | 0.281 | 0.35 | 0.331 | 0.272 | 0.293 | 0.296 | 0.272 | 0.287 | 0.247 | 0.334 | – | 0.907 | 0.931 | 0.917 | 1.2
ChaGo-K-1 | 0.55 | 0.493 | 0.506 | 0.537 | 0.559 | 0.718 | 0.672 | 0.622 | 0.583 | 0.632 | 0.885 | 0.887 | 0.828 | 0.803 | 0.765 | – | 0.929 | 0.94 | 0.976 | 0.701
BEN | 0.699 | 0.679 | 0.687 | 0.768 | 0.644 | 0.385 | 0.399 | 0.337 | 0.315 | 0.296 | 1.01 | 1.01 | 1.13 | 0.99 | 1.35 | 0.634 | 0.693 | 0.824 | 0.747 | 1.16
NCI-H23 | 0.304 | 0.35 | 0.289 | 0.36 | 0.245 | 0.81 | 0.825 | 0.73 | 0.838 | 0.754 | 0.371 | 0.354 | 0.436 | 0.241 | 0.35 | 1.12 | 1.02 | 1.34 | 0.89 | 0.731
LU99A | 1.01 | 0.763 | 0.881 | 0.801 | 0.395 | 0.401 | 0.507 | 0.546 | 0.509 | 0.708 | 0.5 | 0.543 | 0.594 | 0.232 | 0.428 | 1.27 | 1.05 | 1.21 | 1.15 | 0.842
SW 1573 | 0.538 | 0.458 | 0.433 | 0.511 | 0.416 | 0.406 | 0.44 | 0.389 | 0.447 | 0.632 | 0.533 | 0.545 | 0.616 | 0.486 | 0.574 | 0.981 | 1.04 | 1.01 | 0.939 | 0.896
NCI-H2009 | 0.381 | 0.413 | 0.425 | 0.413 | 0.398 | 0.286 | 0.261 | 0.234 | 0.3 | 0.344 | 0.304 | 0.249 | 0.329 | 0.168 | 0.196 | 1.19 | 0.963 | 1.31 | 0.828 | 0.646
HCC-15 | 0.74 | 0.726 | 0.69 | 0.954 | 0.766 | 0.631 | 0.58 | 0.582 | 0.66 | 0.585 | 0.348 | 0.382 | 0.395 | 0.322 | 0.355 | 1.08 | 1.05 | 1.01 | 0.99 | 0.926
EPLC-272H | 0.395 | 0.359 | 0.404 | 0.408 | 0.345 | 0.362 | 0.367 | 0.397 | 0.327 | 0.312 | 0.322 | 0.334 | 0.41 | 0.286 | 0.337 | 0.846 | 0.976 | 0.984 | 0.937 | 0.734
NCI-H1792 | 0.639 | 0.536 | 0.482 | 0.586 | 0.529 | 0.697 | 0.726 | 0.673 | 0.505 | 0.655 | 0.38 | 0.498 | 0.407 | 0.347 | 0.359 | 0.957 | 0.905 | 0.911 | 0.834 | 0.774
HCC-78 | 0.619 | 0.597 | 0.719 | 0.785 | 0.699 | 0.32 | 0.33 | 0.363 | 0.475 | 0.351 | 0.679 | 0.7 | 0.609 | 0.45 | 0.517 | 0.379 | 0.365 | 0.441 | 0.354 | 0.391
LXF-289 | 0.426 | 0.413 | 0.467 | 0.437 | 0.556 | 0.237 | 0.214 | 0.202 | 0.286 | 0.26 | 0.598 | 0.677 | 0.706 | 0.514 | 0.668 | 1 | 0.963 | 0.991 | 0.933 | 0.897
NCI-H460 | 0.554 | 0.543 | 0.366 | 0.276 | 0.0965 | 0.575 | 0.507 | 0.533 | 0.482 | 0.533 | 0.195 | 0.161 | 0.151 | 0.0402 | 0.134 | 1.06 | 1.11 | 1.29 | 1.01 | 0.86
NCI-H2023 | 0.249 | 0.259 | 0.205 | 0.194 | 0.13 | 0.564 | 0.534 | 0.628 | 0.455 | 0.558 | 0.57 | 0.524 | 0.654 | 0.4 | 0.565 | 1.13 | 0.928 | 1.43 | 0.844 | 1.01
SK-LU-1 | 0.684 | 0.671 | 0.522 | 0.612 | 0.475 | 0.211 | 0.196 | 0.204 | 0.211 | 0.211 | 0.5 | 0.578 | 0.548 | 0.3 | 0.408 | 0.465 | 1.07 | 1.3 | 1.03 | 0.936
